Read-outs that look alike come from different tables or passages of the source.
Legend:
Format in all cases: cell-based, human
[1] = system: AR RNA in MCF-7 (HTB 22) cells; experiment: Northern blot of AR RNA in MCF-7 cells
Source text: c-AMP is another regulatory molecule which exerts diverse effects on cells, primarily through cAMP-dependent protein kinase A. Intracellular levels of cAMP are regulated by a combination of receptor-mediated activation and adenylate cyclase inhibition. Some studies indicate that TPA and cAMP induced gene expression may converge as a common pathway. To study the regulation of AR gene expression, we chose to look at the effect of various activators or inhibitors of both these regulatory pathways on the production of AR specific RNA in MCF-7 cells.
Forskolin is a drug which activates adenylate cyclase, resulting in increased intracellular cAMP.
Ten or twenty μg of total RNA was electrophoresed on 1.2% agarose/formaldehyde gels for Northern analysis. The agarose/formaldehyde gels were prepared in 40 mM N-morpholinopropanesulfonic acid (MOPS), pH 7.0/1 mM EDTA/10 mM sodium acetate/2/2 M deionized formaldehyde (pH5.6) in an IBI VCV gel apparatus with frosted plates. RNA was denatured in the same buffer with 50% formamide at 65° C., and run in 1×MOPS, at 20-30 mA for 3-5 hr. […] Bands were scored as (+) if clearly visible after overnight exposure, (+/-) if visible after 3 day exposure, and (++) if detectable after 6 hr. […]

MCF-7 cells = experiment: Morphology and cell number of MCF-7 cells; details: MCF-7 cells compared to untreated cells
Source text: TPA induces dramatic morphological changes in a dose-dependent manner. Following TPA treatment, MCF-7 cells lose their well defined morphology, become rounded, and spread out.

[2] = system: transcription of AR in MCF-7 cells; experiment: Nuclear run-off, transcription of AR; details: in response to TPA
AR RNA in BT-476 cells = experiment: Northern blot of AR RNA, tumor cell line panel; set-up: key: +: clearly visible after overnight exposure; +/-: visible after 3 day exposure; ++: detectable after 6 hr; details: BT-476, 24 hour induction with TPA
Procedure: (§1) Ten or twenty μg of total RNA was electrophoresed on 1.2% agarose/formaldehyde gels for Northern analysis. The agarose/formaldehyde gels were prepared in 40 mM N-morpholinopropanesulfonic acid (MOPS), pH 7.0/1 mM EDTA/10 mM sodium acetate/2/2 M deionized formaldehyde (pH5.6) in an IBI VCV gel apparatus with frosted plates. RNA was denatured in the same buffer with 50% formamide at 65° C., and run in 1×MOPS, at 20-30 mA for 3-5 hr. The gel was rinsed in 10×SSC for 30 min and transferred to Hybond-N membranes (Amersham), UV-crosslinked (1200 μJoules), prehybridized and hybridized in 5×SSPE (1×SSPE is 0.18 M NaCl/10 mM sodium phosphate, pH 7.7, 0.1 mM EDTA), 5×Denhardt's, 0.5% SDS, and 20 μg/ml denatured salmon sperm DNA as carrier. Hybridizations were carried out at 42° C. for 16 hr with 2×10^6 cpm/ml of the ^ 32 P-ARBP1. Blots were washed several times in 2×SSC with 0.1% SDS at room temperature followed by 1×SSC/0.1% SDS, 65° C., and exposed on Kodak X-OMAT with two Dupont Lightning Plus intensifying screens at -70° C. Bands were scored as (+) if clearly visible after overnight exposure, (+/-) if visible after 3 day exposure, and (++) if detectable after 6 hr.
(§2) A panel of tumor cell lines was tested for AR RNA levels both before and after 24 hour induction with TPA. With but a few exceptions, the only sources of detectable AR RNA were in human breast cancer lines treated with TPA.

[3] = system: AR RNA in HBL-100 (HTB 124) cells; experiment: Northern blot of AR RNA, tumor cell line panel; set-up: key: +: clearly visible after overnight exposure; +/-: visible after 3 day exposure; ++: detectable after 6 hr; details: 24 hour induction with TPA
Procedure: as §1, §2

[4] = system: AR RNA in MDA-MB-361 (HTB 27) cells; experiment: Northern blot of AR RNA, tumor cell line panel; set-up: key: +: clearly visible after overnight exposure; +/-: visible after 3 day exposure; ++: detectable after 6 hr; details: 24 hour induction with TPA
Procedure: as §1, §2

[5] = system: AR RNA in BT-474 (HTB 20) cells; experiment: Northern blot of AR RNA, tumor cell line panel; set-up: key: +: clearly visible after overnight exposure; +/-: visible after 3 day exposure; ++: detectable after 6 hr; details: 24 hour induction with TPA
Procedure: as §1, §2

[6] = system: AR RNA in HUF foreskin fibroblast cells; experiment: Northern blot of AR RNA, tumor cell line panel; set-up: key: +: clearly visible after overnight exposure; +/-: visible after 3 day exposure; ++: detectable after 6 hr; details: 24 hour induction with TPA
Procedure: as §1, §2

[7] = system: AR RNA in MDA-MB-157 (HTB 24) cells; experiment: Northern blot of AR RNA, tumor cell line panel; set-up: key: +: clearly visible after overnight exposure; +/-: visible after 3 day exposure; ++: detectable after 6 hr; details: 24 hour induction with TPA
Procedure: as §1, §2

[8] = system: AR RNA in SK-BR-3 (HTB 30) cells; experiment: Northern blot of AR RNA, tumor cell line panel; set-up: key: +: clearly visible after overnight exposure; +/-: visible after 3 day exposure; ++: detectable after 6 hr; details: 24 hour induction with TPA
Procedure: as §1, §2

[9] = system: AR RNA in HEPM (CRL 1486) cells; experiment: Northern blot of AR RNA, tumor cell line panel; set-up: key: +: clearly visible after overnight exposure; +/-: visible after 3 day exposure; ++: detectable after 6 hr; details: 24 hour induction with TPA
Procedure: as §1, §2

[10] = system: AR RNA in JEG-3 (HTB 36) cells; experiment: Northern blot of AR RNA, tumor cell line panel; set-up: key: +: clearly visible after overnight exposure; +/-: visible after 3 day exposure; ++: detectable after 6 hr; details: 24 hour induction with TPA
Procedure: as §1, §2

[11] = system: AR 5' flanking region driving CAT gene in MCF-7 cells; experiment: CAT assay, AR 5' regulatory region/CAT constructs transiently introduced into MCF-7 cells
Procedure: MCF-7 cells were grown as described in Section 6.2.1 supra. For each assay, 1-2×10^6 cells were plated in a 100 mm dish in 10 ml media, and 24 hours later, 20 μg calcium phosphate precipitated supercoiled plasmid DNA was added to the cells (Southern and Berg, 1982). The cells were rinsed with fresh media 4 hours after transfection and subjected to a 25% glycerol shock for 90 seconds. Cells were again rinsed and overlayed with 20 ml fresh media containing 0 or 100ng/ml TPA. Cells were washed and harvested 40 hours after glycerol shock and lysed by sonication in 100 μl 1 0.25 M Tris-HCl (pH 7.8). CAT activity was assayed essentially as detailed by Gorman et al. (1982). Cell extract (3-50 μl) was added to […] ^14 C-chloramphenicol (NEN), in a 150 μl reaction volume of 0.5 M Tris (pH 7.8), 0.5 mM AcetylCoA. The reactions were incubated at 37° C. for 2 hours, extracted with 1 ml ethyl acetate and developed on silica gel TLC plates with CHCl3 :1-butanol (95:5). TLC plates were dried and autoradiographed. The acetylated and unacetylated ^14 C-chloramphenicol was quantitated by counting excised spots in Optifluor. Units of CAT enzymatic activity were calculated as μg chloramphenicol acetylated per hour per μg protein in the cell extract.
Primer extension was performed on MCF-7 RNA with 2 separate oligonucleotides from exon 1. […]

SMILES | AR mRNA ([1]; MCF-7 cells, 25 uM for 4 hours) | effect on cell number (MCF-7 cells) | time after treatment at which increase in the 1.4 kb AR RNA species was seen ([1]; MCF-7 cells treated with TPA for 0-48 hours) | increased transcription of AR [2] | AR RNA Level, TPA INDUCED (AR RNA in BT-476 cells) | AR RNA Level, TPA INDUCED [3] | AR RNA Level, TPA INDUCED [4] | AR RNA Level, TPA INDUCED [5] | AR RNA Level, TPA INDUCED [6] | AR RNA Level, TPA INDUCED [7] | AR RNA Level, TPA INDUCED [8] | AR RNA Level, TPA INDUCED [9] | AR RNA Level, TPA INDUCED [10] | fold induction at 0.1 µg/mL ([11]; MCF7, 40 h, pXARE1CAT (-648 to +40) in MCF-7 cells, addition of TPA, read-out: stimulation of CAT activity) | fold induction at 0.1 µg/mL ([11]; MCF7, deletion mutants E1a-E1h in MCF-7 cells, 40 hour treatment with 100 ng/ml TPA, read-out: enhanced expression of 5' CAT deletion constructs)
C=C[C@@]1(C)CC(=O)[C@]2(O)[C@@]3(C)[C@@H](O)CCC(C)(C)[C@@H]3[C@H](O)[C@H](OC(C)=O)[C@@]2(C)O1 [Forskolin] | marked stimulation |  |  |  |  |  |  |  |  |  |  |  |  |  | 
CCCCCCCCCCCCCC(=O)O[C@@H]1[C@@H](C)[C@@]2(O)[C@@H](C=C(CO)C[C@]3(O)C(=O)C(C)=C[C@@H]23)[C@@H]2C(C)(C)[C@]12OC(C)=O [TPA, 12-0-tetradecanoyl-phorbol-13-acetate] |  | dose-dependent reduction in cell number | ≤ 1 h | 3-5 fold | + | + | ++ | + | +/- | ++ | + | +/- | +/- | 6 to 7 | 3.5 to 7

Reference: US5115096A, “Amphiregulin: a bifunctional growth modulating glycoprotein” (Oncogen, priority 1989, dated 1992)
